How the values were obtained:
[1] = biological target: T1, recombinant RIPK2 kinase (Homo sapiens, UniProt O43353); assay: RIPK2 ADPGlo in vitro kinase assay; format: biochemical; details: average ± SD of at least three titrations, read-out: IC50, In vitro kinase, RIPK2 ADPGIo
T1 construct: made in house
Excerpt: The BIR2 domains of XIAP and cIAP1 were cloned into the pGEX‐6P1 vector and were expressed in E. coli (BL21) cells as a fusion protein with N‐terminal 6xHis (XIAP BIR2 only) and GST tags. Protein expression was induced with IPTG, and cells were lysed using BugBuster protein extraction reagent (#70921, Merck Millipore) according to manufacturer's instructions. Proteins were purified with the FPLC protein purification system ÄKTA PrimePlus (GE Healthcare Life Sciences) using HisTrap FF column purification followed by gel filtration (HiLoad 26/600 Superdex 75 pg (GE Healthcare Life Sciences)). Collected fractions were stored at −80°C and used for probing of peptide array membranes. Expression and purification of recombinant RIPK1‐3 was performed as previously described (Canning et al, 2015; Najjar et al, 2015). RIPK1‐3 ADPGlo kinase assays using 20 ng/well protein were performed for 2 h at room temperature also as previously described (Canning et al, 2015; Najjar et al, 2015).

[2] = test system: NOD2/HEKBlue cells; assay: hNOD2-HEKBlue L18-MDP-induced NF-κB reporter assay; format: cell-based, human; details: Homo sapiens, HEK-Blue; L18-MDP-induced NF-κB reporter; average ± SD of at least three titrations
Procedure: For HEKBlue assay, cells were seeded into clear 96‐well plates at 7.5 × 10^3 cells/well and allowed to attach for 48 h. On the day of the experiment, media was changed to 100 μl of HEKBlue detection media (InvivoGen). Inhibitors were diluted and added in 0.5 μl DMSO 15 min prior to the addition of 1 ng/ml L18‐MDP (InvivoGen). After 8–9 h, absorbance at 620 nm was measured using Victor3V plate reader (Perkin Elmer, Waltham, MA). Values of media‐only wells were subtracted and %inhibition for each compound concentration relative to the DMSO/L18‐MDP‐treated controls was calculated. Inhibition values ± SD were fitted by non‐linear regression using Prism software (GraphPad Software, La Jolla, CA) to calculate IC50 values. For THP1Blue assay, 1 × 10^5 cells were seeded in 200 μl of RPMI media in 96‐well plates and treated with inhibitors in 0.5 μl DMSO for 15 min prior to the addition of 10 μg/ml MDP, 10 ng/ml Pam3CSK4, 10 ng/ml E. coli LPS, or 1 × 10^7 cells/ml heat‐killed L. monocytogenes (InvivoGen) for 24 h. After induction, 20 μl of media was mixed with 180 μl of QUANTI‐Blue reagent (InvivoGen) and incubated at 37°C for 3–4 h, followed by absorbance measurement at 620 nm. IC50 values were calculated as described for HEKBlue assay.
Cayman Chemical Company, Ann Arbor, MI), GSK583 (#HY-100339, MedChem Express, South Brunswick, NJ), WEHI-345 (MedKoo Biosciences, Morrisville, NC), Compound A (CpA, a kind gift from TetraLogic Pharmaceuticals, Malvern, PA). Generation of the CSLP compound series is described in Suebsuwong et al. 2018 (manuscript in preparation). hNOD2-HEKBlue and THP1Blue assays
For HEKBlue assay, cells were seeded into clear 96 well plates at 7.5x10^3 cells/well and allowed to attach for 48 h. On the day of the experiment, media was changed to 100 μl of HEKBlue detection media (InvivoGen). Inhibitors were diluted and added in 0.5 μl DMSO 15 min prior to the addition of 1 ng/ml L18-MDP (InvivoGen). After 8-9 h, absorbance at 620 nm was measured using Victor3V plate reader (Perkin Elmer, Waltham, MA). Values of media-only wells were subtracted and %inhibition for each compound concentration relative to the DMSO/L18-MDP-treated controls were calculated.
Inhibition values + StDev were fitted by non-linear regression using Prism software (GraphPad Software, La Jolla, CA) to calculate IC50 values. For THP1Blue assay, 1x10^5 cells were seeded in 200 μl of RPMI media in 96 well plates and treated with inhibitors in 0.5 μl DMSO 15 min prior to the addition of 10 µg/ml MDP, 10 ng/ml Pam3CSK4, 10 ng/ml E. coli LPS or 1x10^7 cells/ml heat-killed L. monocytogenes (InvivoGen) for 24 h. After induction, 20 μl of media was mixed with 180 μl of QUANTI-Blue reagent (InvivoGen) and incubated at 37 °C for 3-4 h, followed by absorbance measurement at 620 nm. IC50 values were calculated as described for HEKBlue assay. […]

[3] = biological target: T2, NanoLuc-RIPK2 (Homo sapiens, UniProt O43353); assay: nanoBRET cellular RIPK2 target engagement assay in HEKBlue cells; details: average ± SD of at least three titrations, read-out: IC50, Cellular activity, nanoBRET RIPK2 binding
T2 construct: host or cells: hNOD2-HEKBlue cells

[4] = biological target: T2, NanoLuc-RIPK2; assay: nanoBRET cellular RIPK2 residence time assay in HEKBlue cells; format: binding; details: t1/2 for probe to engage RIPK2 after washout of inhibitor
[5] = test system: U2OS/NOD2 cells; assay: Intracellular flow cytometry of CXCL8 after L18-MDP; format: cell-based, human; details: U2OS/NOD2 cells, L18-MDP 200 ng/ml, 4 h
Procedure: Purified material and lysates were analyzed by immunoblotting. […] Numbering below schematic refers to amino acid residues in human RIPK2 and indicate domain boundaries. […] Data information: Data in (A, B, D, H) represent the mean ± SEM of 2–4 independent experiments, each performed in duplicate. […] Two‐way ANOVA was used to determine statistical significance. See also Fig EV1.Source data are available online for this figure.
Dark gray represents areas occupied by RIPK2; white areas indicate empty spaces in CSLP binding pocket. […] Dotted black box indicates region shown for models with CSLP37 and CSLP43. • Molecular docking model of RIPK2 kinase domain in complex with CSLP43 (green) based on RIPK2/CSLP18 structure from (D). […] Two‐way ANOVA was used to determine statistical significance. See also Fig EV2.
GST-BIR2-XIAP as indicated. Intensity quantification of SPOTs was performed using ImageJ software
Dual luciferase reporter assay
Intracellular flow cytometry of CXCL8
for cell death) or vehicle for 24h. Viability was determined using the CellTiter-Glo® luminescent cell
together with Transfection Carrier DNA (Promega).
After addition of Nano-Glo

[6] = test system: RIPK2 ubiquitination in U2OS/NOD2 and THP-1 cells; assay: Purification of Ub-conjugates (TUBE pulldown), RIPK2 ubiquitination; format: cell-based, human; details: U2OS/NOD2 or THP-1 cells, L18-MDP 200 ng/ml, 1 h
Procedure: For co‐immunoprecipitation of HA‐XIAP with RIPK2, transfected and treated cells were lysed in TBS buffer containing 0.5% NP‐40, cOmplete and PhosSTOP inhibitors (Roche) and the lysate was cleared by centrifugation. The lysates were incubated with anti‐HA‐agarose overnight, washed 3× with lysis buffer, and analyzed by immunoblotting. For GST pulldown experiments, U2OS/NOD2 cells were lysed in TBS lysis buffer containing 0.5% NP‐40, cOmplete and PhosSTOP inhibitors (Roche). Cleared lysates were pretreated with kinase inhibitors or DMSO and incubated with GST‐XIAP‐BIR2 bound to Glutathione Sepharose at 4°C overnight. Bound material was washed 3× with lysis buffer or PBS, eluted with 15 mM Glutathione in PBS, and analyzed by immunoblotting. […] The bound material was eluted and analyzed as described above. […]
PBS, eluted with 15 mM Glutathione in PBS and analyzed by immunoblotting. […]

[7] = biological target: T3, His6‐GST‐XIAP‐BIR2 D214S (UniProt P98170 124-242, D214S); assay: peptide or protein array; SPOT assay: selected RIPK2 peptides and their Ala-/Leu-scan variants spotted in triplicate on cellulose, probed with 6xHis-GST-BIR2 of XIAP (WT or D214S), detected with anti-His-HRP, spots quantified with ImageJ; details: both partners purified
T3 construct: not restated for the mutant; also called D214S BIR2 domain; D214S mutant; source: E. coli (BL21), purified (HisTrap FF, gel filtration); not shown: His6, N-terminal, kept; GST, N-terminal, kept

Q: For `CCCS(=O)(=O)Nc1cc(-c2cc(-c3ccc(N4CCNCC4)cc3)cnc2N)ccc1OC` [CSLP18], which IC50 [1] is on record?
A: 31.6 ± 8.7 nM

Q: And the IC50 [2]?
A: 476 ± 96.7 nM

Q: And the IC50 [3]?
A: 578 ± 34.1 nM

Q: And the residence time [4]?
A: 66.6 min

Q: What does the source list for `CCCS(=O)(=O)Nc1cc(F)cc(-c2cc(-c3ccc(N4CCNCC4)cc3)cnc2N)c1` [CSLP38]?
A: IC50 [1]: 39.1 ± 1.5 nM; IC50 [2]: 740 ± 60.7 nM; IC50 [3]: 167 ± 19 nM; residence time [4]: 106 min

Q: How did the IC50 [1] turn out when `CCCS(=O)(=O)Nc1cc(-c2cc(-c3ccc(N4CCNCC4)cc3)cnc2C)cc(F)c1OC` [CSLP53] was run?
A: 1410 nM

Q: What about the IC50 [2] of the same molecule?
A: 2560 nM

Q: What about the IC50 [3] of the same molecule?
A: > 10000 nM

Q: For `CC(C)(C)S(=O)(=O)c1ccc2nccc(Nc3n[nH]c4ccc(F)cc34)c2c1` [GSK583, 6‐(tert‐Butylsulfonyl)‐N‐(5‐fluoro‐1H‐indazol‐3‐yl)quinolin‐4‐amine, reference compound], which “L18-MDP-induced CXCL8 production” value [5] is on record?
A: inhibited

Q: What about the “RIPK2 ubiquitination after L18-MDP” value [6] of the same molecule?
A: antagonized

B1: RIPK2 peptide A13 (residues 28‐42) (peptide, UniProt O43353 28-42, looked up)
peptide: ASGTVSSARHADWRV
notes: 15-mer of human RIPK2, residues 28-42 (β2 and the β2‐β3 loop of the N‐lobe of the kinase domain); also called A13 peptide
Q: Does B1 bind [7]?
A: binds

Q: Does ADFGLSKWRMMSLSQ (peptide, UniProt O43353 163-177, looked up, 15-mer of human RIPK2, residues 163-177) [RIPK2 peptide E6 (residues 163–177)] bind [7]?
A: binds

— publication PMC6120666 (The EMBO Journal, 2018)
